From PMC5442318, “Hundreds of dual-stage antimalarial molecules discovered by a functional gametocyte screen” (Nature Communications, 2017)
Like-named read-outs stand apart in the source and are kept apart here.

Assays:
[1] = system: P. falciparum stage V female gametocytes; assay: P. falciparum female gametocyte activation assay (Pf FGAA), 24 h or 48 h preincubation, Pfs25 expression readout; type: cell-based, Plasmodium falciparum NF54; conditions: for Pf FGAA classification: SLOW / FAST / GAMETE from activity at 48h, 24h, 0h incubation
Summary of the method: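 Purified stage V gametocytes from P. falciparum NF54 gametocyte cultures were exposed to compounds for 24 h or 48 h at 37 °C under 3% O2/5% CO2, then activated by temperature drop plus xanthurenic acid. Activated females were stained with Cy3-anti-Pfs25 (0.5 μg ml^−1) for 24 h at 26 °C and counted by high-content imaging; pIC50 by nonlinear regression.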

[2] = system: P. falciparum female gametes; assay: Pf FGAA with compounds added 30 min after triggering gametocyte activation (gamete-targeting); type: cell-based, Plasmodium falciparum NF54; conditions: 0h incubation time
[3] = system: P. falciparum stages IV–V gametocytes; assay: Gametocytocidal ATP-depletion assay (gametocyte ATP bioluminescence); type: cell-based, Plasmodium falciparum
Summary of the method: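 Purified stage IV–V gametocytes (12,500/well) incubated with compound for 48 h at 37 °C under 3% O2/5% CO2. ATP measured by BacTiter-Glo luminescence as a viability surrogate; hits tested at 2 μM single concentration.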

HepG2 cells = assay: HepG2 cytotoxicity assay; type: cell-based
Summary of the method: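 Steps: equilibrate plates and detection reagent at room temperature (30 min); dispense CellTiter-Glo; allow 10 min at room temperature; record luminescence.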

[4] = system: P. falciparum asexual blood stages; conditions: TCAMS data, cited from earlier work; for IC50: ref 1 (Gamo et al., 2010), read-out: Pf Asexual blood stages XC50; for Pf Asexual stages XC50: ref 1 (Gamo, F. J. et al., Nature 465, 305-310, 2010)
[5] = 24h incubation time, read-out: Pf FGAA IC50 (µM) 24h
[6] = mean, read-out: Gametocytes mean Pf FGAA IC50

| Structure (SMILES) | IC50 [1, 5] [µM] | Pf FGAA classification [1] | IC50 [1, 6] [µM] | IC50 [2] [µM] | Gametocytes mean ATP inhibition at 2µM (%) [3] [%] | HepG2 cells mean TOX50 (HepG2 cells) [µM] | IC50 [4] [nM] | Pf Asexual stages XC50 [4] [nM] | IC50 ([1]; Plasmodium falciparum, 24h incubation time, read-out: Pf FGAA IC50 (µM) 24h) [µM] | IC50 ([1]; Plasmodium falciparum, mean, read-out: Gametocytes mean Pf FGAA IC50) [µM] | IC50 ([2]; Plasmodium falciparum) [µM] | inhibition at 2 µM ([3]; Plasmodium falciparum, mean) [%] | Selectivity ratio (HepG2 cells; HepG2 TOX50 vs Pf FGAA IC50) |
| --- | --- | --- | --- | --- | --- | --- | --- | --- | --- | --- | --- | --- | --- |
| CCCCCCCN1CC[C@@H](CCCc2ccnc3ccc(OC)cc23)[C@@H](CNC)C1.O=C(O)C(=O)O [TCMDC-139875] | 1.86 | FAST | 0.73 | 14.4 | 9.45 | 5.89 | 210 | 210 | – | – | – | – | – |
| CN(C)CCCNCc1ccc(-c2ccc(C(F)(F)F)cc2)cc1 [TCMDC-140011] | – | FAST | – | – | – | 4.90 | 870 | 870 | 1.87 | 1.68 | > 20 | 1.03 | 2.92 |
| COc1cccc(CCNC(C)Cc2ccc(OCCCCOc3ccccc3)cc2)c1 (centres unmarked) [TCMDC-140020] | 3.72 | SLOW | 1.51 | > 20 | 8.01 | 1.46 | 740 | 740 | – | – | – | – | – |
| Nc1ccc2[nH]cc(C3CCN(CC4CCC(NC(=O)/C=C/c5ccc(Cl)c(Cl)c5)CC4)CC3)c2n1 (centres unmarked) [TCMDC-140064] | 6.18 | SLOW | 0.69 | > 20 | -8.60 | 12.59 | 730 | 730 | – | – | – | – | – |
| CC(=O)Nc1ccc2[nH]cc(C3CCN(CC4CCN(C(=O)/C=C/c5ccc(Cl)c(Cl)c5)CC4)CC3)c2n1 [TCMDC-140112] | 14.2 | SLOW | 1.38 | 13.1 | 8.03 | 12.59 | 160 | 160 | – | – | – | – | – |
| CC(=O)Nc1ccc2[nH]cc(C3CCN(CC4CCC(NC(=O)/C=C/c5ccc(Cl)c(Cl)c5)CC4)CC3)c2n1 (centres unmarked) [TCMDC-140114] | 15.5 | SLOW | 1.74 | > 20 | -7.40 | 13.49 | 260 | 260 | – | – | – | – | – |
| CCN(CC)CCN(Cc1ccc(-c2ccc(Cl)cc2)cc1)C(=O)Cn1cc(CN(C)C)c(=O)nc1SCc1ccc(F)cc1 [TCMDC-140406] | 9.4 | SLOW | 1.38 | > 20 | -10.76 | 6.61 | 750 | 750 | – | – | – | – | – |
| CN1CCN(CCCNCc2ccccc2-c2cccc(CNCc3ccc4c(c3)OCO4)c2)CC1.O=C(O)C(F)(F)F [TCMDC-140476] | 5.7 | SLOW | 1.64 | > 20 | -1.87 | 1.51 | 790 | 1070 | – | – | – | – | – |
| CC(C)(CN)c1nc(-c2ccc(Br)c(O)c2)c(-c2ccncc2)[nH]1.Cl [TCMDC-140680] | 0.79 | GAMETE | 0.84 | 0.49 | -3.29 | 45.82 | 960 | 390 | – | – | – | – | – |
| N=C(N)Nc1nc(-c2ccc(NCc3ccc(CNc4cccc(-c5csc(NC(=N)N)n5)c4)cc3)cc2)cs1 [TCMDC-140699] | 0.14 | GAMETE | 0.9 | 0.89 | 23.62 | 4.79 | 310 | 310 | – | – | – | – | – |
| CN1CCC=C(C(=O)NCC(C)(C)c2nc(-c3ccc(Cl)c(O)c3)c(-c3ccncc3)[nH]2)C1.Cl [TCMDC-140700] | 4.68 | GAMETE | 1.91 | 1.61 | -6.01 | 13.36 | 1000 | 1000 | – | – | – | – | – |
